Read-outs that look alike come from different tables or passages of the source.
Experiments:
human aromatase = target: T1, human aromatase (Homo sapiens, UniProt P11511); experiment: UPLC-based aromatase inhibition assay; type: biochemical
T1 construct: containing protein (2 mg) from human placental microsomes; from tissue; host or cells: human placenta (microsomes)
T1 sequence (P11511 1-503): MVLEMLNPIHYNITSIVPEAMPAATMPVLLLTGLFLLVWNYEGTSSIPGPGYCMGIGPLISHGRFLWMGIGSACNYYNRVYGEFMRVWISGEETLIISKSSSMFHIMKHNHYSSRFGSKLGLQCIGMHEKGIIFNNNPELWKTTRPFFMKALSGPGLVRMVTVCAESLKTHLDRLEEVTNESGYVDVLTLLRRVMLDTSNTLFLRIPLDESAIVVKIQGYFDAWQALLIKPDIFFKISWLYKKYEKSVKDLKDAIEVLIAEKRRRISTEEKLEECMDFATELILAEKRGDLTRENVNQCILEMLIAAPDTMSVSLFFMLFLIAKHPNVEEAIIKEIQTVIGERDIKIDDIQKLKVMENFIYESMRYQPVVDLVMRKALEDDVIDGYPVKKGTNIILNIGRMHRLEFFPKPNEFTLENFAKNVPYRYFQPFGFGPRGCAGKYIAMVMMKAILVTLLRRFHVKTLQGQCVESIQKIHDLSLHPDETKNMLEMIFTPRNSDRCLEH

[1] = system: human fibroblast cell line; experiment: cytotoxicity against human fibroblast cell line
ovulation = conditions: oral dosage of 10 mg/day in combination with 50 μg/day ethinylestradiol; cited from earlier work

Row | Structure (SMILES) | IC50 (human aromatase) [nM] | cytotoxicity [1] | inhibition of ovulation (ovulation) | IC50 (human aromatase; in vitro, human placental microsomes, testosterone substrate, read-out: aromatase inhibition IC50) [nM]
1 | CC(=O)O[C@]1(C(C)=O)CC[C@H]2[C@@H]3CCC4=CC(=O)CC[C@]4(O)[C@H]3[C@@H](O)C[C@@]21C [Compound 2, 17α-Acetoxy-10β,11β-dihydroxy-progesterone] | 827 ± 66 | non-cytotoxic | – | –
2 | CC(=O)O[C@]1(C(C)=O)CC[C@H]2[C@@H]3CCC4=CC(=O)CC[C@@H]4[C@H]3CC[C@@]21C [Compound 1, 17α-acetoxy-19-nor-progesterone] | – | – | inhibit ovulation | 740 ± 24.1

From US12310980B2, “Synthesis of a potent aromatase inhibitor 17α-acetoxy-10β,11β-dihydroxy-progesterone for the treatment of ER+ breast cancer” (priority 2023, dated 2025)
